Where two headings read alike, the source gives them in different places.
Tests used:
S. aureus (MSSA) = test: cefoxitin Etest susceptibility testing (MIC), MSSA; assay type: cell-based, Staphylococcus aureus
MR-CNS = test: cefoxitin Etest susceptibility testing (MIC), MR-CNS; assay type: cell-based, coagulase-negative staphylococci
S. aureus (MRSA) = test: cefoxitin Etest susceptibility testing (MIC), MRSA; assay type: cell-based, Staphylococcus aureus
MS-CNS = test: cefoxitin Etest susceptibility testing (MIC), MS-CNS; assay type: cell-based, coagulase-negative staphylococci

Measured: MIC

CO[C@@]1(NC(=O)Cc2cccs2)C(=O)N2C(C(=O)O)=C(COC(N)=O)CS[C@@H]21 [cefoxitin]
64 µg/mL: MR-CNS; strain 353, MR-CNS, S. hominis, Reference DK | S. aureus (MRSA); cefoxitin Etest, strain 557, MRSA, Reference (USA300), type IV | S. aureus (MRSA); cefoxitin Etest, strain 797, MRSA, Clinical DK, type II (EVIGENE)
4 µg/mL: S. aureus (MSSA); Staphylococcus aureus, ATCC 29213 / MSSA, cefoxitin Etest, MSSA Reference (ATCC 29213), read-out: MIC | S. aureus (MSSA); Staphylococcus aureus, ATCC 29213 / MSSA, cefoxitin, strain 156, MSSA ATCC 29213, read-out: MIC Etest | S. aureus (MSSA); cefoxitin Etest, strain 21, MSSA, Clinical EU | S. aureus (MSSA); cefoxitin Etest, strain 22, MSSA, Clinical DK | S. aureus (MSSA); cefoxitin Etest, strain 24, MSSA, Clinical DK | S. aureus (MSSA); cefoxitin Etest, strain 26, MSSA, Clinical DK | S. aureus (MSSA); cefoxitin Etest, strain 54, MSSA, Clinical EU | S. aureus (MSSA); cefoxitin Etest, strain 156, MSSA, Reference (ATCC 29213)
≧256: MR-CNS; strain 154, MR-CNS, S. saccharolyticus, Reference (ATCC 14953) | MR-CNS; strain 350, MR-CNS, S. epidermidis, Reference | MR-CNS; strain 408, MR-CNS, Clinical DK | MR-CNS; strain 412, MR-CNS, Clinical DK | S. aureus (MRSA); cefoxitin Etest, strain 2, MRSA, Reference (ATCC 33591), type III | S. aureus (MRSA); cefoxitin Etest, strain 9, MRSA, Reference EU, type I | S. aureus (MRSA); cefoxitin Etest, strain 10, MRSA, Reference EU, type Ia | S. aureus (MRSA); cefoxitin Etest, strain 11, MRSA, Reference EU, type II | S. aureus (MRSA); cefoxitin Etest, strain 12, MRSA, Reference EU, type III | S. aureus (MRSA); cefoxitin Etest, strain 13, MRSA, Reference EU, type IIIa | S. aureus (MRSA); cefoxitin Etest, strain 295, MRSA, Reference DK, type IA | S. aureus (MRSA); cefoxitin Etest, strain 298, MRSA, Reference DK, type II | S. aureus (MRSA); cefoxitin Etest, strain 299, MRSA, Reference DK, type II | S. aureus (MRSA); cefoxitin Etest, strain 300, MRSA, Reference DK, type II | S. aureus (MRSA); cefoxitin Etest, strain 302, MRSA, Reference DK, type IIIA | S. aureus (MRSA); cefoxitin Etest, strain 303, MRSA, Reference DK, type III | S. aureus (MRSA); cefoxitin Etest, strain 305, MRSA, Reference DK, type III | S. aureus (MRSA); cefoxitin Etest, strain 320, MRSA, Clinical DK, type IV (EVIGENE) | S. aureus (MRSA); cefoxitin Etest, strain 463, MRSA, Reference (NCTC10422), type Ib | S. aureus (MRSA); cefoxitin Etest, strain 559, MRSA, Reference (USA300), type IV | S. aureus (MRSA); cefoxitin Etest, strain 801, MRSA, Clinical DK, type II (EVIGENE) | S. aureus (MRSA); cefoxitin Etest, strain 812, MRSA, Clinical DK, type II (EVIGENE) | S. aureus (MRSA); cefoxitin Etest, strain 920, MRSA, Clinical DK, type I (EVIGENE) | S. aureus (MRSA); cefoxitin Etest, strain 931, MRSA, Clinical DK, type III (EVIGENE) | S. aureus (MRSA); cefoxitin Etest, strain 1468, MRSA, Reference (COL), type I
1.5 µg/mL: MS-CNS; cefoxitin Etest, strain 629, MS-CNS, S. epidermidis, Reference (ATCC 14990) | MS-CNS; cefoxitin, MS-CNS (n = 5), read-out: MIC Etest
32 µg/mL: MR-CNS; strain 4, MR-CNS, S. epidermidis, Reference (ATCC 51625)
3 µg/mL: S. aureus (MSSA); Staphylococcus aureus, ATCC 11632 / MSSA, cefoxitin Etest, MSSA Reference (ATCC 11632), read-out: MIC | S. aureus (MSSA); Staphylococcus aureus, ATCC 25923 / MSSA, cefoxitin Etest, MSSA Reference (ATCC 25923), read-out: MIC | S. aureus (MSSA); Staphylococcus aureus, ATCC 25923 / MSSA, cefoxitin, strain 155, MSSA ATCC 25923, read-out: MIC Etest | S. aureus (MSSA); cefoxitin Etest, strain 1, MSSA, Reference (ATCC 6538) | S. aureus (MSSA); cefoxitin Etest, strain 23, MSSA, Clinical DK | S. aureus (MSSA); cefoxitin Etest, strain 117, MSSA, Reference (ATCC 11632) | S. aureus (MSSA); cefoxitin Etest, strain 155, MSSA, Reference (ATCC 25923)
3 to 4 µg/mL: S. aureus (MSSA); Staphylococcus aureus, cefoxitin, MSSA (n = 15), read-out: MIC Etest
12 µg/mL: S. aureus (MRSA); Staphylococcus aureus, MRSA, cefoxitin Etest, Reference (DK, SSI), SCCmec type V, read-out: MIC | S. aureus (MRSA); Staphylococcus aureus, MRSA, cefoxitin, strain 306, MRSA DK, SCCmec V, read-out: MIC Etest | S. aureus (MRSA); cefoxitin Etest, strain 306, MRSA, Reference DK, type V | S. aureus (MRSA); cefoxitin Etest, strain 460, MRSA, Reference, Tokyo, type V
96 µg/mL: S. aureus (MRSA); cefoxitin Etest, strain 321, MRSA, Clinical DK, type V (EVIGENE) | S. aureus (MRSA); cefoxitin Etest, strain 924, MRSA, Clinical DK, type IV (EVIGENE) | S. aureus (MRSA); cefoxitin Etest, strain 1184, MRSA, Reference (ATCC BAA-1708), type II (EVIGENE)
256 µg/mL: MR-CNS; strain 352, MR-CNS, S. epidermidis, Reference DK | MR-CNS; strain 414, MR-CNS, Clinical DK
≥ 256 µg/mL: S. aureus (MRSA); Staphylococcus aureus, ATCC 33591 / MRSA, cefoxitin Etest, Reference (ATCC 33591), SCCmec type III, read-out: MIC | S. aureus (MRSA); Staphylococcus aureus, ATCC 33591 / MRSA, cefoxitin, strain 2, MRSA ATCC 33591, SCCmec III, read-out: MIC Etest | S. aureus (MRSA); Staphylococcus aureus, MRSA / NCTC 10422, cefoxitin Etest, Reference (NCTC10422), SCCmec type Ib, read-out: MIC | S. aureus (MRSA); Staphylococcus aureus, MRSA, cefoxitin Etest, Reference (Clinical COL), SCCmec type I, read-out: MIC | S. aureus (MRSA); Staphylococcus aureus, MRSA, cefoxitin Etest, Reference (Clinical EU), SCCmec type Ia, read-out: MIC | S. aureus (MRSA); Staphylococcus aureus, MRSA, cefoxitin Etest, Reference (DK, SSI), SCCmec type IIIa, read-out: MIC | S. aureus (MRSA); Staphylococcus aureus, MRSA, cefoxitin, strain 9, MRSA EU, SCCmec I, read-out: MIC Etest | S. aureus (MRSA); Staphylococcus aureus, MRSA, cefoxitin, strain 11, MRSA EU, SCCmec II, read-out: MIC Etest | S. aureus (MRSA); Staphylococcus aureus, MRSA, cefoxitin, strain 13, MRSA, SCCmec IIIa, read-out: MIC Etest | S. aureus (MRSA); Staphylococcus aureus, MRSA, cefoxitin, strain 320, MRSA clinical DK, SCCmec IV, read-out: MIC Etest | S. aureus (MRSA); Staphylococcus aureus, MRSA, cefoxitin, strain 1468, MRSA COL, SCCmec I, read-out: MIC Etest
48 µg/mL: S. aureus (MRSA); Staphylococcus aureus, MRSA / USA300, cefoxitin Etest, Reference (USA300), SCCmec type IV, read-out: MIC | S. aureus (MRSA); Staphylococcus aureus, MRSA / USA300, cefoxitin, strain 886, MRSA USA300, SCCmec IV, read-out: MIC Etest | S. aureus (MRSA); Staphylococcus aureus, MRSA / USA500, cefoxitin Etest, Reference (USA500), SCCmec type IV, read-out: MIC | S. aureus (MRSA); cefoxitin Etest, strain 15, MRSA, Clinical DK, type IV/ST80 | S. aureus (MRSA); cefoxitin Etest, strain 297, MRSA, Reference DK, type IA, EVIGENE IV | S. aureus (MRSA); cefoxitin Etest, strain 304, MRSA, Reference DK, type IV | S. aureus (MRSA); cefoxitin Etest, strain 307, MRSA, Reference DK, type IV | S. aureus (MRSA); cefoxitin Etest, strain 560, MRSA, Reference (USA500), type IV | S. aureus (MRSA); cefoxitin Etest, strain 886, MRSA, Reference (FPR3757, USA300), type IV | S. aureus (MRSA); cefoxitin Etest, strain 926, MRSA, Clinical DK, type IV (EVIGENE)
192 µg/mL: MR-CNS; strain 351, MR-CNS, S. warneri, Reference DK
24 µg/mL: S. aureus (MRSA); cefoxitin Etest, strain 927, MRSA, Clinical DK, type IV
128 µg/mL: S. aureus (MRSA); Staphylococcus aureus, ATCC 43300 / MRSA, cefoxitin Etest, Reference (ATCC 43300), SCCmec type II, read-out: MIC | S. aureus (MRSA); Staphylococcus aureus, ATCC 43300 / MRSA, cefoxitin, strain 39, MRSA ATCC 43300, SCCmec II, read-out: MIC Etest | S. aureus (MRSA); cefoxitin Etest, strain 39, MRSA, Reference (ATCC 43300), type II (EVIGENE)
